Measured values: paper PMC12498136, “Synthesis and biological evaluation of novel carnosic acid derivatives with anticancer activity” (RSC Advances, 2025)

How the values were obtained:
Assay type in all cases: cell-based
SW480 cells [1] = assay: MTT cell viability assay in SW480 cells
Experimental: (§1) The MTT assay was used to assess the effect of the compounds on cell viability. For this purpose, A375 (1500 cells per well), BJ (10 000 cells per well), Caco-2 (4000 cells per well), HCT116 (3000 cells per well), Mia Paca-2 (2000 cells per well), SW480 (6000 cells per well), and SW620 (8000 cells per well) cells were seeded in 96-well plates and incubated for 24 h. Subsequently, the culture medium was switched with a new medium containing DMSO (control) or the compound at a specified concentration. Following a 72 h incubation period, the supernatant was aspirated, and 100 μL of a mixture (1 : 1) of filtered MTT solution (1 mg per mL PBS) and FBS-free medium was added. The plates were then incubated for 1 h at 37 °C. After this time, the supernatant was aspirated, and the formazan crystals were dissolved in 100 μL of DMSO in each well. Relative cell viability was calculated by measuring absorbance at 570 nm using a Benchmark Plus Microplate Reader (Bio-Rad Laboratories, Hercules, CA, USA). Results are presented as the mean ± standard deviation (SD) of IC50 values, determined by nonlinear regression analysis of dose–response curves (log(inhibitor) vs. response with variable slope (four parameters)) using GraphPad Prism 9 software (GraphPad Software, San Diego, CA, USA).

SW620 cells = assay: MTT cell viability assay in SW620 cells; conditions: Homo sapiens, SW-620, 72 h, read-out: IC50 SW620
Experimental: as §1

Caco-2 cells = assay: MTT cell viability assay in Caco-2 cells; conditions: Homo sapiens, Caco-2, 72 h, read-out: IC50 Caco-2
Experimental: as §1

Mia Paca-2 cells = assay: MTT cell viability assay in Mia Paca-2 cells; conditions: Homo sapiens, MIA PaCa-2, 72 h, read-out: IC50 Mia Paca-2
Experimental: as §1

A375 cells = assay: MTT cell viability assay in A375 cells; conditions: Homo sapiens, A-375, 72 h, read-out: IC50 A375
Experimental: as §1

BJ cells = assay: MTT cell viability assay in non-tumoral BJ fibroblasts
Experimental: as §1

SW480 cells [2] = assay: Apoptosis assay (annexin V-FITC/PI, flow cytometry); conditions: SW480, 6.3 μM, 24, 48 or 72 h
Experimental: Our objective was to assess whether the anticancer activity observed in SW480 cells treated with compound 17 results from the activation of apoptosis.
SW480 cells were seeded at a density of 1.68 × 10^5 cells per well in 6-well plates and incubated at 37 °C. […] Adherent cells were harvested by trypsinization, and they were washed with DPBS and collected by centrifugation along with the cells in suspension. Cells were resuspended in 3 μL annexin V FITC and 95 μL binding buffer containing 140 mM NaCl, 2.5 mM CaCl2, and 10 mM HEPES/NaOH (pH 7.4). The cell suspension was then incubated in the dark, at room temperature for 30 min. The cells were then stained with 510 μL of a mixture containing 500 μL of binding buffer and 10 μL of PI solution (1 mg mL^−1). Finally, data from 1 × 10^4 cells were collected through fluorescence activated cell sorting (FACS) analysis using a Gallios flow cytometer (Beckman Coulter, Brea, CA, USA) at 488 nm.

CDK4 = assay: Western blot of CDK4 levels in SW480 cells; conditions: SW480, 6.3 μM, relative to control
Experimental: (§2) SW480 cells were seeded in 6-well plates and treated as described in the previous subsection. After 24, 48 or 72 h of incubation, adherent cells were washed twice with ice-cold DPBS and incubated with lysis buffer (0.2% Triton X-100, 0.5 mM sodium deoxycholate, 1 mM Na-EDTA, 1 mM DTT, 20 mM Tris–HCl (pH 7.5), 0.5% phosphatases inhibitor cocktail, and 1% proteases inhibitor cocktail) for 30 min at 4 °C. The cells were scraped, sonicated, and centrifuged at 120 00 × g (20 min at 4 °C). […] The gels were then transferred to PVDF membranes, which were blocked with 5% skim milk in PBS-Tween-20 (0.1%) for 1 h at room temperature. Subsequently, the membranes were incubated with the primary antibodies for 30 mi at room temperature (actin) or overnight at 4 °C (CDK4, CDK6, cyclin A, Rb and SOD2/MnSOD). After incubation, the membranes were washed with PBS-Tween-20 (0.1%) and incubated with anti-mouse secondary antibody (40 min) or anti-rabbit secondary antibody (1 h) at room temperature. Finally, the membranes were washed with PBS-Tween-20 (0.1%) and treated with the Immobilon Western Chemiluminescent HRP Substrate Kit, and autoradiography was performed using an FPM-100A film processor (Fujifilm, Tokyo, Japan). western blot results were obtained from three independent experiments, except for cyclin A at 24 h (n = 2), Rb protein at 24 and 72 h (n = 2), and SOD2 (MnSOD) at 72 h (n = 2).

CDK6 = assay: Western blot of CDK6 levels in SW480 cells; conditions: SW480, 6.3 μM, relative to control
Experimental: as §2

cyclin A = assay: Western blot of cyclin A levels in SW480 cells; conditions: SW480, 6.3 μM, relative to control
Experimental: as §2

Rb = assay: Western blot of Rb levels in SW480 cells; conditions: SW480, 6.3 μM, 24, 48, and 72 h, relative to control
Experimental: as §2

SOD2/MnSOD = assay: Western blot of SOD2/MnSOD levels in SW480 cells; conditions: SW480, 6.3 μM, 24 and 72 h, relative to control
Experimental: as §2

[3] = SW480 cells, ratio of IC50 values

CC(=O)Oc1c(C(C)C)cc2c(c1OC(C)=O)[C@@]1(NC(=O)OCC(C)C)CCCC(C)(C)[C@@H]1CC2 [Compound 17, (4bR,8aS)-8,8-Dimethyl-4b-{[(2-methylpropoxy)carbonyl]amino}-2-(propan-2-yl)-4b,5,6,7,8,8a,9,10-octahydrophenanthrene-3,4-diyl diacetate]
IC50 (SW480 cells [1]; Homo sapiens, SW480, 72 h, read-out: IC50 SW480): 6.3 ± 0.5 µM
fold more active than cisplatin (SW480 cells [1]; [3]): 2.4 fold
fold more potent than CA 1 (SW480 cells [1]; [3]): 3.5 fold
IC50 (SW620 cells): 10 ± 1 µM
IC50 (Caco-2 cells): 16 ± 2 µM
IC50 (Mia Paca-2 cells): 7.5 ± 0.6 µM
IC50 (A375 cells): 6.7 ± 0.5 µM
times less potent in BJ cells than in cancer cell lines (selectivity) (BJ cells; BJ vs cancer cell lines): 3–8 times
IC50 (BJ cells; Homo sapiens, BJ, MTT assay, 72 h incubation): > 50 µM
induction of apoptosis (SW480 cells [2]): did not induce apoptosis
CDK4 protein level (CDK4; 24 h): significantly reduced
CDK4 protein level (CDK4; 48 h): lower than those in the control group
CDK4 protein level (CDK4; 72 h): reduction
CDK6 protein level (CDK6; 24 h): significantly reduced
CDK6 protein level (CDK6; 48 h): lower than those in the control group
cyclin A expression (cyclin A; 24 h): decrease
cyclin A expression (cyclin A; 48 h): did not affect
Rb protein level (Rb): notable decrease
expression of SOD2/MnSOD (SOD2/MnSOD): significantly increased
